The target in the assay is T1, human capsaicin receptor (Homo sapiens, UniProt Q8NER1).
T1 construct: expressed in transfected cells
Nature of the assay: Calcium mobilization assay, antagonist activity (Example 6). It is filed as cell-based. Particulars: Table II; 50% decrease in fluorescence response of cells expressing human capsaicin receptor exposed to capsaicin. An outline of the steps: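 Stable HEK293 clones expressing full-length human receptor, loaded with Fluo-3 in KRH buffer pH 7.4. Test compounds at 1 μM to 5 μM final preincubated 0.5 to 6 hours at room temperature, then challenged with capsaicin at its EC50; IC50 is 50% decrease in FLIPR calcium response.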
A general note: Calcium assays in cells follow changes in intracellular calcium, usually with a dye or a luminescent sensor.

The term IC50 denotes the concentration needed to halve the response being measured.

T1 sequence (Q8NER1 whole entry): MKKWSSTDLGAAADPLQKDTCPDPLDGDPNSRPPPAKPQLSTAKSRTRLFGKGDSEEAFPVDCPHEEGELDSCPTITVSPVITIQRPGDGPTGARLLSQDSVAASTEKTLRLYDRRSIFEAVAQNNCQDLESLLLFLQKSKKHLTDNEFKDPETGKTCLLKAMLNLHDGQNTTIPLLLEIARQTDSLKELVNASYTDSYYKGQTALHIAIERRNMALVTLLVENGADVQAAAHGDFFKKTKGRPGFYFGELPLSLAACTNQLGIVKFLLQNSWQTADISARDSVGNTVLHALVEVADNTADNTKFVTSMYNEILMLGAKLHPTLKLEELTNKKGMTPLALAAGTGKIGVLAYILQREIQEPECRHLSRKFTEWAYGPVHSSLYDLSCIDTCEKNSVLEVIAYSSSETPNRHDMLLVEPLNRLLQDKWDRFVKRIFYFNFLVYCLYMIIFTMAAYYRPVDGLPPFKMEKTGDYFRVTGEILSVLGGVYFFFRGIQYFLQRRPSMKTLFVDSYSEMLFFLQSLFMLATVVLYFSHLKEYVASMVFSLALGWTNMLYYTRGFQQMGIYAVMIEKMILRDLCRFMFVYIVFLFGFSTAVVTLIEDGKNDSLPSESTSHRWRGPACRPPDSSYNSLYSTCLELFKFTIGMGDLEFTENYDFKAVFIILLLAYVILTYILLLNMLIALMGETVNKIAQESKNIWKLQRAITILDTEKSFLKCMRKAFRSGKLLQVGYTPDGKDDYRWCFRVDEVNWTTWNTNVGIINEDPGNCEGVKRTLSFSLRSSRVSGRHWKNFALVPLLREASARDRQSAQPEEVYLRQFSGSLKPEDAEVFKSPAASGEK

Turning to `CCCCCC(CNc1ncnc2cc(-c3ncccc3C(F)(F)F)ccc12)c1ccccc1` (centres unmarked) [Compound 73, (2-Phenyl-heptyl)-[7-(3-trifluoromethyl-pyridin-2-yl)-quinazolin-4-yl]-amine], the IC50 was not above 1000 nM.

Take `FC(F)(F)c1cccnc1-c1ccc2c(NC3Cc4ccccc4C3)ncnc2c1` [Compound 76, Indan-2-yl-[7-(3-trifluoromethyl-pyridin-2-yl)-quinazolin-4-yl]-amine]: the IC50 is not above 1000 nM.

In the case of `FC(F)(F)c1cccnc1-c1ccc2c(NC3CCc4ccccc4C3)ncnc2c1` (centres unmarked) [Compound 77, (1,2,3,4-Tetrahydro-naphthalen-2-yl)-[7-(3-trifluoromethyl-pyridin-2-yl)-quinazolin-4-yl]-amine], the IC50 is not above 1000 nM.

Consider `FC(F)(F)c1cccnc1-c1ccc2c(NC3CCc4ccccc43)ncnc2c1` (centres unmarked) [Compound 78, Indan-1-yl-[7-(3-trifluoromethyl-pyridin-2-yl)-quinazolin-4-yl]-amine], for which the concentration for half-maximal inhibition (IC50) was not above 1000 nM.

Consider `FC(F)(F)c1cccnc1-c1ccc2c(N[C@H]3CCCc4ccccc43)ncnc2c1` [Compound 81, (1,2,3,4-Tetrahydro-naphthalen-1-yl)-[7-(3-trifluoromethyl-pyridin-2-yl)-quinazolin-4-yl]-amine], for which the IC50 is not above 1000 nM.

`FC(F)(F)c1cccnc1-c1ccc2c(NCCc3ccccc3)nc(CN3CCSCC3)nc2c1` [Compound 97, Phenethyl-[2-thiomorpholin-4-ylmethyl-7-(3-trifluoromethyl-pyridin-2-yl)-quinazolin-4-yl]-amine]: the IC50 is not above 1000 nM.

Regarding `CC1(C)CCCN(Cc2nc(NCCc3ccccc3)c3ccc(-c4ncccc4C(F)(F)F)cc3n2)C1` [Compound 100, [2(3,3-Dimethyl-piperidin-1-ylmethyl)-7-(3-trifluoromethyl-pyridin-2-yl)-quinazolin-4-yl]-phenethyl-amine], the concentration for half-maximal inhibition (IC50) is not above 1000 nM.

For `FC(F)(F)c1cccnc1-c1ccc2c(NCCc3ccccc3)nc(CN3CCCCCCC3)nc2c1` [Compound 103, [2-Azocan-1-ylmethyl-7-(3-trifluoromethyl-pyridin-2-yl)-quinazolin-4-yl]-phenethyl-amine], the IC50 was not above 1000 nM.

For `CC1CCN(Cc2nc(NCCc3ccccc3)c3ccc(-c4ncccc4C(F)(F)F)cc3n2)CC(C)(C)C1` (centres unmarked) [Compound 106, Phenethyl-[7-(3-trifluoromethyl-pyridin-2-yl)-2-(3,3,5-trimethyl-azepan-1-ylmethyl)-quinazolin-4-yl]-amine], the IC50 was not above 1000 nM.

Take `Cc1ccccc1CCNc1nc(CN2CCC(C)CC(C)(C)C2)nc2cc(-c3ncccc3C(F)(F)F)ccc12` (centres unmarked) [Compound 107, (2-o-Tolyl-ethyl)-[7-(3-trifluoromethyl-pyridin-2-yl)-2-(3,3,5-trimethyl-azepan-1-ylmethyl)quinazolin-4-yl]-amine]: the concentration for half-maximal inhibition (IC50) was not above 1000 nM.

For the molecule `Cc1ccccc1CCNc1nc(CN2CCC3(CC2)OCCO3)nc2cc(-c3ncccc3C(F)(F)F)ccc12` [Compound 110, [2-(1,4-Dioxa-8-aza-spiro[4.5]dec-8-ylmethyl)-7-(3-trifluoromethyl-pyridin-2-yl)-quinazolin-4-yl]-(2-o-tolyl-ethyl)-amine], the half-inhibitory concentration (IC50) was not above 1000 nM.

Take `C=CCN(CC=C)Cc1nc(NCCc2ccccc2)c2ccc(-c3ncccc3C(F)(F)F)cc2n1` [Compound 130, [2-Diallylaminomethyl-7-(3-trifluoromethyl-pyridin-2-yl)-quinazolin-4-yl]-phenethyl-amine]: the 50% inhibitory concentration (IC50) is not above 1000 nM.

On to `CCCN(Cc1nc(NCCc2ccccc2C)c2ccc(-c3ncccc3C(F)(F)F)cc2n1)CC1CC1` [Compound 140, [2-[(Cyclopropylmethyl-propyl-amino)-methyl]-7-(3-trifluoromethyl-pyridin-2-yl)-quinazolin-4-yl]-(2-o-tolyl-ethyl)-amine], for which the IC50 was not above 1000 nM.

`CCCCN(CCCC)Cc1nc(NCCc2ccccc2)c2ccc(-c3ncccc3C(F)(F)F)cc2n1` [Compound 145, [2-Dibutylaminomethyl-7-(3-trifluoromethyl-pyridin-2-yl)-quinazolin-4-yl]-phenethyl-amine]: the IC50 was not above 1000 nM.

Source of the values: US20070219203A1, “Arylalkylamino-substituted quinazoline analogues” (Neurogen Corporation, priority 2004, published 2007).
